The NIST ThermoML archive (doi:10.1016/j.fluid.2016.01.035)
Numbers after ± are expanded uncertainties.

Columns and labels:
[1] = molar enthalpy of vaporization or sublimation; settings: 298.15 K; Crystal; TGA
[2] = Molar enthalpy of transition or fusion; settings: Crystal; DSC
[3] = for vapor or sublimation pressure: Liquid, Transpiration method

Structure (SMILES)	molar enthalpy [1] [kcal/mol]	Molar enthalpy of transition or fusion [2] [kcal/mol]	Normal melting temperature ([3]; Crystal, DTA) [°C]	vapor or sublimation pressure ([3]; 340.2 K) [kPa]	vapor or sublimation pressure ([3]; 343.2 K) [kPa]	vapor or sublimation pressure ([3]; 348.2 K) [kPa]	vapor or sublimation pressure ([3]; 353.1 K) [kPa]	vapor or sublimation pressure ([3]; 358.2 K) [kPa]	vapor or sublimation pressure ([3]; 363.2 K) [kPa]	vapor or sublimation pressure ([3]; 368.1 K) [kPa]	vapor or sublimation pressure ([3]; 370.2 K) [kPa]	vapor or sublimation pressure ([3]; 373.2 K) [kPa]	vapor or sublimation pressure ([3]; 376.2 K) [kPa]
COc1cc(C=CC(=O)O)ccc1O [4-hydroxy-3-methoxycinnamic acid]	32.4 ± 0.478	8.29 ± 0.191	172.8 ± 0.5	–	–	–	–	–	–	–	–	–	–
COC(=O)C=Cc1ccc(O)c(OC)c1 [methyl 3-(4-hydroxy-3-methoxyphenyl)-2-propenoate]	–	5.62 ± 0.55	–	9.7e-05 ± 4e-06	0.000128 ± 6e-06	0.00021 ± 9e-06	0.000324 ± 1.4e-05	0.000513 ± 2.2e-05	0.000769 ± 3.3e-05	0.00117 ± 5e-05	0.0014 ± 6e-05	0.00179 ± 8e-05	0.00229 ± 0.0001
